Experimental findings from patent EP4417607A1, “HETEROCYCLIC COMPOUND AS SOS1 INHIBITOR AND USES THEREOF” (Nanjing Zaiming Pharmaceutical Co., Ltd., priority 2021, dated 2023) are described below.

Test [1] relates to H358 cells. Kind of test: H358 cell proliferation inhibition (CellTiter-Glo luminescent cell viability assay). As to conditions: Homo sapiens, NCI-H358, 168 h, 7 days. It counts as cell-based. In outline:
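H358 cells seeded at 3000 cells/well in RPMI1640/10% FBS, treated with compound for 7 days at 37 °C/5% CO2. Viability read by CellTiter-Glo 3D luminescence, normalised to cell-free (100%) and compound-free (0%) controls; IC50 fitted from 8 concentrations by four-parameter curve.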

Test [2] concerns p-ERK pathway in H358 cells. The test can be described thus: p-ERK pathway inhibition in H358 cells (Advanced phospho-ERK (Thr202/Tyr204) cellular kit, HTRF). It is filed as cell-based. As to conditions: Homo sapiens, NCI-H358, 1 h compound incubation. In outline: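 IC50 from an 8-point four-parameter fit of % inhibition of ERK Thr202/Tyr204 phosphorylation, measured by HTRF 665/620 ratio in lysates. H358 cells were seeded at 50000/well, starved overnight without serum, and exposed to compound 1 h at 37 °C; controls were cell-free (100%) and untreated (0%).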
Background: Time-resolved FRET reads energy transfer from a long-lived donor to a nearby acceptor.

Usually IC50 stands for the concentration at which inhibition is half-maximal. A high value points to a need for much substance. Turning to `Cc1nc(N[C@H](C)c2cccc(C(F)F)c2F)c2cn(C3(CF)CC3)c(=O)c(N3CCC(C)(O)C3)c2n1` (stereo partly drawn) [Example 62, 4-(((R)-1-(3-(difluoromethyl)-2-fluorophenyl)ethyl)amino)-6-(1-(fluoromethyl)cyclopropyl)-8-(3-hydroxy-3-methylpyrrolidin-1-yl)-2-methylpyrido[4,3-d]pyrimidine-7(6H)-one], the IC50 in test [1] worked out at 71.6 nM; in test [2], 133 nM.

Turning to `Cc1nc(N[C@H](C)c2cccc(C(F)F)c2F)c2cn(C3(CF)CC3)c(=O)c(N(C)c3cnn(C)c3)c2n1` [Example 65, (R)-4-((1-(3-(difluoromethyl)-2-fluorophenyl)ethyl)amino)-6-(1-(fluoromethyl)cyclopropyl)-2-methyl-8-(methyl(1-methyl-1H-pyrazol-4-yl)amino)pyrido[4,3-d]pyrimidine-7(6H)-one], the results for the IC50 in test [1] and in test [2] were 66.4 nM and 27 nM, respectively.

As for `Cc1nc(N[C@H](C)c2cccc(C(F)F)c2F)c2cn(C3(CF)CC3)c(=O)c(S(C)(=O)=O)c2n1` [Example 66, (R)-4-((1-(3-(difluoromethyl)-2-fluorophenyl)ethyl)amino)-6-(1-(fluoromethyl)cyclopropyl)-2-methyl-8-(methylsulfonyl)pyrido[4,3-d]pyrimidine-7(6H)-one], the values for the half-inhibitory concentration (IC50) in test [1] and in test [2] were 79 nM and 76.8 nM, respectively.

Consider `Cc1nc(N[C@H](C)c2cccc(C(F)F)c2F)c2cn(N3CCOCC3)c(=O)c(N3CCOC[C@@H]3C)c2n1` [Example 68, 4-(((R)-1-(3-(difluoromethyl)-2-fluorophenyl)ethyl)amino)-2-methyl-8-((S)-3-methylmorpholine)-6-morpholinepyrido[4,3-d]pyrimidine-7(6H)-one], for which the IC50 in test [1] stood at 25.2 nM; in test [2] it was 15.3 nM.

In the case of `Cc1nc(N[C@H](C)c2cccc(C(F)F)c2F)c2cn(N3CCOCC3)c(=O)c(N3CCN(C)CC3)c2n1` [Example 69, (R)-4-((1-(3-(difluoromethyl)-2-fluorophenyl)ethyl)amino)-2-methyl-8-(4-methylpiperazin-1-yl)-6-morpholinepyrido[4,3-d]pyrimidine-7(6H)-one], the concentration for half-maximal inhibition (IC50) in test [1] is 22.9 nM; in test [2], 38.7 nM.

Regarding `Cc1nc(N[C@H](C)c2cccc(C(F)(F)F)c2C)c2cn(N3CCOCC3)c(=O)c(N3CCN(C)CC3)c2n1` [Example 70, (R)-2-methyl-4-((1-(2-methyl-3-(trifluoromethyl)phenyl)ethyl)amino)-8-(4-methylpiperazin-1-yl)-6-morpholinepyrido[4,3-d]pyrimidine-7(6H)-one], the half-maximal inhibitory concentration (IC50) in test [1] is 45.2 nM; in test [2], 34.5 nM.

Take `Cc1nc(N[C@H](C)c2cccc(C#N)c2C)c2cn(C3(CF)CC3)c(=O)c(-c3ccc(C#N)cc3)c2n1` [Example 71, (R)-3-(1-((8-(4-cyanophenyl)-6-(1-(fluoromethyl)cyclopropyl)-2-methyl-7-oxo-6,7-dihydropyrido[4,3-d]pyrimidin-4-yl)amino)ethyl)-2-methylbenzonitrile]: the values for the 50% inhibitory concentration (IC50) in test [1] and in test [2] were 114 nM and 156 nM, respectively.

For the compound `Cc1nc(N[C@H](C)c2cccc(C(F)F)c2F)c2cn(C3(CF)CC3)c(=O)c(Oc3ccnc(C#N)c3)c2n1` [Example 72, (R)-4-((4-((1-(3-(difluoromethyl)-2-fluorophenyl)ethyl)amino)-6-(1-(fluoromethyl)cyclopropyl)-2-methyl-7-oxo-6,7-dihydropyrido[4,3-d]pyrimidin-8-yl)oxy)pyridinecarbonitrile], the concentration for half-maximal inhibition (IC50) came out at 73.8 nM in test [1] and 72.4 nM in test [2].

On to `CC(=O)N1CCC(Oc2c(=O)n(C3(CF)CC3)cc3c(N[C@H](C)c4cccc(C(F)F)c4F)nc(C)nc23)CC1` [Example 73, (R)-8-((1-acetylpiperidin-4-yl)oxy)-4-((1-(3-(difluoromethyl)-2-fluorophenyl)ethyl)amino)-6-(1-(fluoromethyl)cyclopropyl)-2-methylpyrido[4,3-d]pyrimidine-7(6H)-one], for which the half-inhibitory concentration (IC50) came to 71.8 nM in test [1] and 104 nM in test [2].

Take `Cc1nc(N[C@H](C)c2cccc(C#N)c2C)c2cn(N3CCOCC3)c(=O)c(N3CCN(C)CC3)c2n1` [Example 76, (R)-2-methyl-3-(1-((2-methyl-8-(4-methylpiperazin-1-yl)-6-morpholine-7-oxo-6,7-dihydropyrido[4,3-d]pyrimidin-4-yl)amino)ethyl)benzonitrile]: the values for the IC50 in test [1] and in test [2] were 108 nM and 113 nM, respectively.

As for `[2H][C@](C)(Nc1nc(C)nc2c(N3CCOCC3)c(=O)n(N3CCOCC3)cc12)c1cccc(C(F)F)c1F` [Example 78, (R)-4-((1-(3-(difluoromethyl)-2-fluorophenyl)ethyl-1-d)amino)-2-methyl-6,8-dimorpholinepyrido[4,3-d]pyrimidine-7(6H)-one], the half-inhibitory concentration (IC50) in test [1] was found to be 71.1 nM; in test [2], 39.6 nM.

On to `Cc1nc(N[C@H](C)c2cccc(S(F)(F)(F)(F)F)c2)c2cn(N3CCOCC3)c(=O)c(N3CCN(C)CC3)c2n1` [Example 82, (R)-2-methyl-8-(4-methylpiperazin-1-yl)-6-morpholine-4-((1-(3-(pentafluoro-λ^6-sulfanyl)phenyl)ethyl)amino)pyrido[4,3-d]pyrimidine-7(6H)-one], for which the IC50 was determined as 30.4 nM in test [1] and 74.6 nM in test [2].

For the compound `CC(=O)Nc1c(=O)n(C2(CF)CC2)cc2c(N[C@H](C)c3cccc(C(F)F)c3F)nc(C)nc12` [Example 83, (R)-N-(4-((1-(3-(difluoromethyl)-2-fluorophenyl)ethyl)amino)-6-(1-(fluoromethyl)cyclopropyl)-2-methyl-7-oxo-6,7-dihydropyrido[4,3-d]pyrimidine-8-yl)acetamide], the 50% inhibitory concentration (IC50) in test [1] is 90.9 nM; in test [2], 92 nM.

Consider `Cc1nc(N[C@H](C)c2cccc(C(F)(F)F)c2C)c2cn(C3(CF)CC3)c(=O)c(N3CCO[C@H](C)C3)c2n1` [Example 85, 6-(1-(fluoromethyl)cyclopropyl)-2-methyl-4-(((R)-1-(2-methyl-3-(trifluoromethyl)phenyl)ethyl)amino)-8-((R)-2-methylmorpholine)pyrido[4,3-d]pyrimidine-7(6H)-one], for which the 50% inhibitory concentration (IC50) was 97.2 nM in test [1] and 41 nM in test [2].

In the case of `[2H]C([2H])([2H])[C@@H](Nc1nc(C)nc2c(N3CCOCC3)c(=O)n(C3(CF)CC3)cc12)c1cccc(C(F)F)c1F` [Example 90], the values for the IC50 in test [1] and in test [2] were 35.4 nM and 16.7 nM, respectively.

In the case of `Cc1nc(N[C@H](C)c2cccc(C#N)c2C)c2cn(N3CCOCC3)c(=O)c(OC3(C)CC3)c2n1` [Example 91, (R)-2-methyl-3-(1-((2-methyl-8-(1-methylcyclopropoxy)-6-morpholinyl-7-oxo-6,7-dihydropyrido[4,3-d]pyrimidin-4-yl)amino)ethyl)benzonitrile], the half-inhibitory concentration (IC50) turned out to be 148 nM in test [1] and 133 nM in test [2].

As to `Cc1nc(N[C@H](C)c2cccc(C(F)F)c2F)c2cn(C3(CF)CC3)c(=O)c(N3CCN(C(C)C)CC3)c2n1` [Example 94, (R)-4-((1-(3-(difluoromethyl)-2-fluorophenyl)ethyl)amino)-6-(1-(fluoromethyl)cyclopropyl)-8-(4-isopropylpiperazin-1-yl)-2-methylpyrido[4,3-d]pyrimidine-7(6H)-one], the IC50 worked out at 16.8 nM in test [1] and 60.9 nM in test [2].
